Test results: PMC12629169, “Antiaging, Wound‐Healing Properties and Chemical Characterization of Crude Hydroalcoholic Extract and Fractions of Myrcia neoobscura” (Chemistry & Biodiversity, 2025)
≈ marks a conversion by molar mass, not a printed value.

Biological target: T1, collagenase
T1 construct: gene colG
Test: ninhydrin colorimetric gelatin hydrolysis
Format: biochemical
Conditions: gelatin substrate, Tris-HCl pH 7.5, 5 mM CaCl2, 1 µM ZnCl2, 37°C

In the case of `O=C(O)c1cc(O)c(O)c(O)c1` [compound 1, gallic acid], the IC50 was 108.88 ± 12.71 µg/mL (≈ 640 µM).
